The target of this assay is T1, 5'-nucleotidase (Rattus norvegicus, UniProt P21588).
T1 sequence (P21588 whole entry): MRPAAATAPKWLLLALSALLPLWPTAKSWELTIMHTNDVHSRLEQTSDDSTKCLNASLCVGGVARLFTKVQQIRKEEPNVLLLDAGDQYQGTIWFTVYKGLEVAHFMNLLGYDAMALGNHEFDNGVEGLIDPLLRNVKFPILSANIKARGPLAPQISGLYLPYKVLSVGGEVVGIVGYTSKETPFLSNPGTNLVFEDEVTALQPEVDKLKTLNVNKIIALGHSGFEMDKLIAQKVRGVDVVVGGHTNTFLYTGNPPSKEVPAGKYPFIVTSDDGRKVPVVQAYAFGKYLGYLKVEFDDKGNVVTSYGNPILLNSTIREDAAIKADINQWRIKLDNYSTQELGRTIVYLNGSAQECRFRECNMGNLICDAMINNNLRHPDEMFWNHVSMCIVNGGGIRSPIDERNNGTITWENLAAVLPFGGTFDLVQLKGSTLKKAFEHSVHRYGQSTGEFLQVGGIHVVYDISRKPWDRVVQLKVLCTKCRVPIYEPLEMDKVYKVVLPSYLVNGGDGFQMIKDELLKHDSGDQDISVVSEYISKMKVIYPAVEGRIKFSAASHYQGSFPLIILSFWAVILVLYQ

What is called Ki is a measure of affinity in units of concentration, obtained from inhibition or displacement.

Turning to `COc1cccc(OC)c1-c1cc(C(=O)NC2(C(=O)O)C3CC4CC(C3)CC2C4)nn1-c1ccnc2cc(Cl)ccc12` (stereo unspecified), the affinity, expressed as Ki, was 124 nM.

Source of the values: BindingDB's records for doi:10.1016/s0014-2999(97)01510-0 (Hospital Saint-Antoine, 1998).
